Assay results: the OPERA property sets (Mansouri et al. 2018)

Row | Compound | boiling point [°C] | log10 vapour pressure (mmHg) | ready biodegradability | log10 Henry constant (atm·m³/mol) | log10 Koa | melting point [°C] | log10 Koc (L/kg)
1 | CCCC(C)C | 60.2 | 2.32 | readily biodegradable |  |  |  | 
2 | CN1CCCC1 | 81 | 2 |  | -4.52 | 3.64 |  | 
3 | CCCCOP(=O)(O)OCCCC |  |  | not readily biodegradable |  |  | -13 | 
4 | c1ccc2c(c1)nnn2C1CCCCC1 |  |  |  |  |  | 104 | 
5 | C=Cc1ccc(CC)cc1 | 192 | -0.0246 | not readily biodegradable |  |  | -49.7 | 
6 | FC(F)=C(Cl)C(F)(F)F | 6.8 |  |  |  |  | -130 | 
7 | Oc1ccc2c(O)cccc2c1 |  |  |  |  |  | 138 | 
8 | c1ccc2c(c1)CCc1ccccc1N2 |  |  |  |  |  | 106 | 
9 | CCCCC(C)=O | 128 | 1.06 | not readily biodegradable |  | 3.68 | -55.5 | 
10 | COC(=O)/C(C)=C/OP(=S)(OC)OC |  | -2.92 |  |  |  |  | 
11 | C1=CCCCCCC1 |  |  |  |  |  | -12 | 
12 | c1ccc2c(c1)ccc1c3ccc4ccccc4c3[nH]c21 |  |  |  |  |  |  | 6.02
13 | C=C(Cl)C(=O)O |  |  |  |  |  | 66 | 
14 | CCCC(O)(CC)CCC | 182 |  |  |  |  |  | 
15 | N#CCCl | 126 | 1.18 |  |  |  |  | 
16 | Oc1ccc(C(F)(F)F)cc1 |  |  |  |  |  | 46 | 
17 | FC(F)(F)c1cccc(Br)c1 | 152 |  |  |  |  | 1 | 
18 | COc1ccc(C)cc1N | 235 |  | not readily biodegradable |  |  | 53 | 
19 | O=C(O)c1cc(O)ccc1O |  |  |  |  |  | 200 | 
20 | O=C(O)c1ccc(O)c(O)c1O |  |  |  |  |  | 221 | 
21 | FC(F)(F)CC(F)(F)F | -1.1 |  |  |  |  | -94.2 | 
22 | CCOCC(C)O (stereo unspecified) | 131 |  |  |  |  |  | 

Row | Compound | boiling point [°C] | log10 vapour pressure (mmHg) | ready biodegradability | log10 Henry constant (atm·m³/mol) | log10 Koa | melting point [°C] | log10 Koc (L/kg)
23 | Clc1ccc2c(c1)Oc1cc(Cl)ccc1O2 |  | -5.98 |  |  |  | 151 | 
24 | CCCCCCCC/C=C\CCCCCCCCCCCC(N)=O |  |  | readily biodegradable |  |  | 77.5 | 
25 | C[SiH]1O[SiH](C)O[SiH](C)O[SiH](C)O1 (stereo unspecified) | 134 |  |  |  |  | -65 | 
26 | CC(c1ccc(Cl)cc1)c1ccc(Cl)cc1 | 320 |  |  |  |  | 56 | 
27 | CC=NNc1ccc([N+](=O)[O-])cc1[N+](=O)[O-] |  |  |  |  |  | 166 | 
28 | CC(=O)C(C)(C)C | 106 | 1.5 |  |  |  | -52.5 | 
29 | COCCN | 95 |  |  |  |  |  | 
30 | CCc1cccnc1 | 165 | 0.403 |  | -4.98 |  | -76.9 | 
31 | COc1ccccc1C=O | 244 |  |  |  |  | 37.5 | 
32 | Clc1cc(Cl)c2ccccc2c1 | 291 |  |  |  |  | 62.3 | 
33 | O=c1ccc2ccc(O)c(O)c2o1 |  |  |  |  |  | 262 | 
34 | COc1cc2c(c(OC)c1OC)-c1ccc(OC)c(=O)cc1[C@@H](NC(C)=O)CC2 |  |  |  |  |  | 156 | 
35 | O=C1C=C(Cl)C(=O)C(Cl)=C1 |  |  |  |  |  | 123 | 
36 | Clc1cc(-c2c(Cl)c(Cl)cc(Cl)c2Cl)c(Cl)c(Cl)c1Cl |  |  |  | -5 |  |  | 
37 | C=Cc1cccc(CC)c1 | 190 | -0.0947 | not readily biodegradable |  |  | -101 | 
38 | Clc1ccc(-c2cc(Cl)ccc2Cl)cc1 |  | -3.4 |  | -3.72 | 7.92 |  | 
39 | C#CC(=O)O |  |  |  |  |  | 9 | 
40 | Cc1cc(C(=O)NCCc2ccc(S(=O)(=O)NC(=O)NN3CCCCCC3)cc2)no1 |  |  |  |  |  | 189 | 
41 | CCC1(CCC(C)C)C(=O)NC(=O)NC1=O |  |  |  |  |  | 157 | 
42 | CN(C(=O)CN(CCO)CC(=O)N(C)C(C)(C)Cc1ccccc1)C(C)(C)Cc1ccccc1 |  |  |  |  |  | 104 | 
43 | CCOC(=O)CC(C)O (stereo unspecified) | 185 |  |  |  |  |  | 
44 | CCCCCCCCC(C)C | 189 | -0.22 |  |  |  | -48.9 | 

Row | Compound | boiling point [°C] | log10 vapour pressure (mmHg) | ready biodegradability | log10 Henry constant (atm·m³/mol) | log10 Koa | melting point [°C] | log10 Koc (L/kg)
45 | FC(Br)C(F)(F)F (stereo unspecified) | 8.6 |  |  | -1.24 |  | -80 | 
46 | Fc1cc(F)cc(F)c1 | 75.5 | 2.02 |  |  |  | -5.5 | 
47 | CCCOc1ccc2[nH]c(NC(=O)OC)nc2c1 |  |  |  |  |  | 230 | 
48 | CC(=O)CC(=O)OCCCl | 198 |  |  |  |  |  | 
49 | CC(=O)C1CC1 | 111 |  |  | -4.99 |  | -68.3 | 
50 | C=C(C)C(=O)OCC(C)O (stereo unspecified) |  |  | readily biodegradable |  |  |  | 
51 | O=C1C(Cl)=C(Cl)C(=O)C(Cl)=C1Cl |  |  |  |  |  | 290 | 2.32
52 | CN[C@@H](Cc1ccc(O)cc1)C(=O)O |  |  |  |  |  | 293 | 
53 | Nc1cnn(-c2ccccc2)c(=O)c1Br |  |  |  |  |  | 224 | 
54 | CCS(=O)(=O)c1nc2ccccn2c1S(=O)(=O)NC(=O)Nc1nc(OC)cc(OC)n1 |  |  |  |  |  | 201 | 
55 | Clc1ccccc1-c1cccc(Cl)c1Cl |  |  |  | -3.7 |  |  | 
56 | Cc1c(Cl)cccc1[N+](=O)[O-] | 238 |  |  |  |  | 37.8 | 
57 | Cc1ccc(C)o1 | 93.5 |  |  |  |  | -62.8 | 
58 | N#Cc1cccc(N)c1 | 289 |  |  |  |  | 54.3 | 
59 | Cc1ncc([N+](=O)[O-])n1C |  |  |  |  |  | 138 | 
60 | N#CC(c1ccccc1)c1ccccc1 |  |  | not readily biodegradable |  |  | 74.3 | 
61 | C[C@H](NC(=O)[C@H](C)NC(=O)[C@@H](N)CCP(C)(=O)O)C(=O)[O-].[Na+] |  |  |  |  |  | 160 | 
62 | O=C(O)c1cc(-c2ccc(F)cc2F)ccc1O |  |  |  |  |  | 216 | 
63 | Cc1cccc(O)c1[N+](=O)[O-] |  | -1.43 |  | -5.51 |  | 37 | 
64 | N#Cc1ccc(O)cc1 |  |  | not readily biodegradable |  |  | 112 | 
65 | CC1(C)CC(N)CC(C)(CN)C1 (stereo unspecified) | 247 | -1.82 | not readily biodegradable |  |  | 10 | 
66 | CCCCN1CCCC1 | 154 |  | readily biodegradable |  |  |  | 
